Measurements taken from the NIST ThermoML archive (doi:10.1016/j.fluid.2015.03.015).

Assay: refractive index (other wavelength) (dimensionless); xn = mol fraction of the nth substance listed

CCCC(C)O (stereo not drawn) [pentan-2-ol] + CCCCCCCC[n+]1ccn(C)c1.F[B-](F)(F)F
Minimum deviation
Settings | refractive index
284.59 K, Liquid mixture 1, Wavelength=623.8 nm, x2 = 0.01 | 1.4096
284.59 K, Liquid mixture 2, Wavelength=623.8 nm, x2 = 0.347 | 1.4237
285.29 K, Liquid mixture 1, Wavelength=623.8 nm, x2 = 0.01 | 1.4093
285.29 K, Liquid mixture 2, Wavelength=623.8 nm, x2 = 0.338 | 1.4232
286.13 K, Liquid mixture 1, Wavelength=623.8 nm, x2 = 0.012 | 1.4091
286.13 K, Liquid mixture 2, Wavelength=623.8 nm, x2 = 0.332 | 1.4227
286.89 K, Liquid mixture 1, Wavelength=623.8 nm, x2 = 0.013 | 1.4088
286.89 K, Liquid mixture 2, Wavelength=623.8 nm, x2 = 0.319 | 1.422
287.65 K, Liquid mixture 1, Wavelength=623.8 nm, x2 = 0.015 | 1.4086
287.65 K, Liquid mixture 2, Wavelength=623.8 nm, x2 = 0.315 | 1.4216
288.25 K, Liquid mixture 1, Wavelength=623.8 nm, x2 = 0.016 | 1.4084
288.25 K, Liquid mixture 2, Wavelength=623.8 nm, x2 = 0.307 | 1.4211
288.92 K, Liquid mixture 1, Wavelength=623.8 nm, x2 = 0.016 | 1.4081
288.92 K, Liquid mixture 2, Wavelength=623.8 nm, x2 = 0.293 | 1.4204
289.54 K, Liquid mixture 1, Wavelength=623.8 nm, x2 = 0.019 | 1.408
289.54 K, Liquid mixture 2, Wavelength=623.8 nm, x2 = 0.288 | 1.42
290.07 K, Liquid mixture 1, Wavelength=623.8 nm, x2 = 0.021 | 1.4079
290.07 K, Liquid mixture 2, Wavelength=623.8 nm, x2 = 0.279 | 1.4195
290.61 K, Liquid mixture 1, Wavelength=623.8 nm, x2 = 0.021 | 1.4077
290.61 K, Liquid mixture 2, Wavelength=623.8 nm, x2 = 0.271 | 1.419
291.08 K, Liquid mixture 1, Wavelength=623.8 nm, x2 = 0.023 | 1.4076
291.08 K, Liquid mixture 2, Wavelength=623.8 nm, x2 = 0.264 | 1.4186
291.55 K, Liquid mixture 1, Wavelength=623.8 nm, x2 = 0.025 | 1.4075
291.55 K, Liquid mixture 2, Wavelength=623.8 nm, x2 = 0.255 | 1.4181
292.02 K, Liquid mixture 1, Wavelength=623.8 nm, x2 = 0.027 | 1.4074
292.02 K, Liquid mixture 2, Wavelength=623.8 nm, x2 = 0.247 | 1.4176
292.46 K, Liquid mixture 1, Wavelength=623.8 nm, x2 = 0.03 | 1.4074
292.46 K, Liquid mixture 2, Wavelength=623.8 nm, x2 = 0.235 | 1.417
292.84 K, Liquid mixture 1, Wavelength=623.8 nm, x2 = 0.031 | 1.4073
292.84 K, Liquid mixture 2, Wavelength=623.8 nm, x2 = 0.229 | 1.4166
293.15 K, Liquid mixture 1, Wavelength=623.8 nm, x2 = 0.035 | 1.4074
293.15 K, Liquid mixture 2, Wavelength=623.8 nm, x2 = 0.221 | 1.4162
293.41 K, Liquid mixture 1, Wavelength=623.8 nm, x2 = 0.037 | 1.4074
293.41 K, Liquid mixture 2, Wavelength=623.8 nm, x2 = 0.211 | 1.4157
293.63 K, Liquid mixture 1, Wavelength=623.8 nm, x2 = 0.04 | 1.4075
293.63 K, Liquid mixture 2, Wavelength=623.8 nm, x2 = 0.206 | 1.4154
293.78 K, Liquid mixture 1, Wavelength=623.8 nm, x2 = 0.041 | 1.4075
293.78 K, Liquid mixture 2, Wavelength=623.8 nm, x2 = 0.202 | 1.4152
293.89 K, Liquid mixture 1, Wavelength=623.8 nm, x2 = 0.044 | 1.4076
293.89 K, Liquid mixture 2, Wavelength=623.8 nm, x2 = 0.201 | 1.4151
293.99 K, Liquid mixture 1, Wavelength=623.8 nm, x2 = 0.045 | 1.4076
293.99 K, Liquid mixture 2, Wavelength=623.8 nm, x2 = 0.197 | 1.4149
294.09 K, Liquid mixture 1, Wavelength=623.8 nm, x2 = 0.047 | 1.4077
294.09 K, Liquid mixture 2, Wavelength=623.8 nm, x2 = 0.193 | 1.4147
294.19 K, Liquid mixture 1, Wavelength=623.8 nm, x2 = 0.048 | 1.4077
294.19 K, Liquid mixture 2, Wavelength=623.8 nm, x2 = 0.189 | 1.4145
294.27 K, Liquid mixture 1, Wavelength=623.8 nm, x2 = 0.05 | 1.4078
294.27 K, Liquid mixture 2, Wavelength=623.8 nm, x2 = 0.188 | 1.4144
294.35 K, Liquid mixture 1, Wavelength=623.8 nm, x2 = 0.053 | 1.4079
294.35 K, Liquid mixture 2, Wavelength=623.8 nm, x2 = 0.184 | 1.4142
294.42 K, Liquid mixture 1, Wavelength=623.8 nm, x2 = 0.054 | 1.4079
294.42 K, Liquid mixture 2, Wavelength=623.8 nm, x2 = 0.18 | 1.414
294.49 K, Liquid mixture 1, Wavelength=623.8 nm, x2 = 0.056 | 1.408
294.49 K, Liquid mixture 2, Wavelength=623.8 nm, x2 = 0.175 | 1.4138
294.54 K, Liquid mixture 1, Wavelength=623.8 nm, x2 = 0.058 | 1.4081
294.54 K, Liquid mixture 2, Wavelength=623.8 nm, x2 = 0.174 | 1.4137
294.6 K, Liquid mixture 1, Wavelength=623.8 nm, x2 = 0.06 | 1.4082
294.6 K, Liquid mixture 2, Wavelength=623.8 nm, x2 = 0.172 | 1.4136
294.64 K, Liquid mixture 1, Wavelength=623.8 nm, x2 = 0.063 | 1.4083
294.64 K, Liquid mixture 2, Wavelength=623.8 nm, x2 = 0.168 | 1.4134
294.68 K, Liquid mixture 1, Wavelength=623.8 nm, x2 = 0.065 | 1.4084
294.68 K, Liquid mixture 2, Wavelength=623.8 nm, x2 = 0.166 | 1.4133
294.73 K, Liquid mixture 1, Wavelength=623.8 nm, x2 = 0.067 | 1.4085
294.73 K, Liquid mixture 2, Wavelength=623.8 nm, x2 = 0.162 | 1.4131
294.77 K, Liquid mixture 1, Wavelength=623.8 nm, x2 = 0.069 | 1.4086
294.77 K, Liquid mixture 2, Wavelength=623.8 nm, x2 = 0.157 | 1.4129
294.8 K, Liquid mixture 1, Wavelength=623.8 nm, x2 = 0.071 | 1.4087
294.8 K, Liquid mixture 2, Wavelength=623.8 nm, x2 = 0.153 | 1.4127
294.83 K, Liquid mixture 1, Wavelength=623.8 nm, x2 = 0.073 | 1.4088
294.83 K, Liquid mixture 2, Wavelength=623.8 nm, x2 = 0.149 | 1.4125
294.87 K, Liquid mixture 1, Wavelength=623.8 nm, x2 = 0.077 | 1.409
294.87 K, Liquid mixture 2, Wavelength=623.8 nm, x2 = 0.145 | 1.4123
294.88 K, Liquid mixture 1, Wavelength=623.8 nm, x2 = 0.079 | 1.4091
294.88 K, Liquid mixture 2, Wavelength=623.8 nm, x2 = 0.143 | 1.4122
294.89 K, Liquid mixture 1, Wavelength=623.8 nm, x2 = 0.083 | 1.4093
294.89 K, Liquid mixture 2, Wavelength=623.8 nm, x2 = 0.141 | 1.4121
294.9 K, Liquid mixture 1, Wavelength=623.8 nm, x2 = 0.085 | 1.4094
294.9 K, Liquid mixture 2, Wavelength=623.8 nm, x2 = 0.139 | 1.412
294.91 K, Liquid mixture 1, Wavelength=623.8 nm, x2 = 0.085 | 1.4094
294.91 K, Liquid mixture 1, Wavelength=623.8 nm, x2 = 0.087 | 1.4095
294.91 K, Liquid mixture 2, Wavelength=623.8 nm, x2 = 0.132 | 1.4117
294.91 K, Liquid mixture 2, Wavelength=623.8 nm, x2 = 0.134 | 1.4118
294.92 K, Liquid mixture 1, Wavelength=623.8 nm, x2 = 0.088 | 1.4095
294.92 K, Liquid mixture 1, Wavelength=623.8 nm, x2 = 0.09 | 1.4096
294.92 K, Liquid mixture 2, Wavelength=623.8 nm, x2 = 0.128 | 1.4115
294.92 K, Liquid mixture 2, Wavelength=623.8 nm, x2 = 0.13 | 1.4116
294.93 K, Liquid mixture 1, Wavelength=623.8 nm, x2 = 0.091 | 1.4097
294.93 K, Liquid mixture 1, Wavelength=623.8 nm, x2 = 0.093 | 1.4098
294.93 K, Liquid mixture 1, Wavelength=623.8 nm, x2 = 0.097 | 1.41
294.93 K, Liquid mixture 1, Wavelength=623.8 nm, x2 = 0.099 | 1.4101
294.93 K, Liquid mixture 2, Wavelength=623.8 nm, x2 = 0.118 | 1.411
294.93 K, Liquid mixture 2, Wavelength=623.8 nm, x2 = 0.122 | 1.4112
294.93 K, Liquid mixture 2, Wavelength=623.8 nm, x2 = 0.124 | 1.4113
294.93 K, Liquid mixture 2, Wavelength=623.8 nm, x2 = 0.126 | 1.4114

85 kPa, Liquid, Wavelength=632.8 nm, Minimum Deviation
Settings | refractive index
288.19 K, x2 = 0.599 | 1.4284
288.8 K, x2 = 0.899 | 1.4331
288.81 K, x2 = 0.798 | 1.4316
288.98 K, x2 = 0.7 | 1.4298
289.74 K, x2 = 0.599 | 1.428
290.84 K, x2 = 0.798 | 1.4311
290.84 K, x2 = 0.899 | 1.4326
290.99 K, x2 = 0.7 | 1.4293
291.3 K, x2 = 0.599 | 1.4275
292.85 K, x2 = 0.599 | 1.427
292.89 K, x2 = 0.899 | 1.432
292.91 K, x2 = 0.798 | 1.4305
293.05 K, x2 = 0.7 | 1.4287
293.9 K, x2 = 0.4 | 1.422
294.42 K, x2 = 0.599 | 1.4265
294.98 K, x2 = 0.798 | 1.4299
294.98 K, x2 = 0.899 | 1.4314
295.13 K, x2 = 0.7 | 1.4281
295.53 K, x2 = 0.099 | 1.4101
295.95 K, x2 = 0.4 | 1.4213
296.02 K, x2 = 0.3 | 1.4182
296.02 K, x2 = 0.599 | 1.426
296.13 K, x2 = 0.5 | 1.4238
297.03 K, x2 = 0.798 | 1.4293
297.03 K, x2 = 0.899 | 1.4308
297.19 K, x2 = 0.7 | 1.4275
297.57 K, x2 = 0.3 | 1.4177
297.68 K, x2 = 0.5 | 1.4233
297.86 K, x2 = 0.099 | 1.4092
298.01 K, x2 = 0.4 | 1.4207
299.09 K, x2 = 0.3 | 1.4172
299.11 K, x2 = 0.798 | 1.4287
299.11 K, x2 = 0.899 | 1.4303
299.22 K, x2 = 0.2 | 1.4133
299.22 K, x2 = 0.7 | 1.4269
299.24 K, x2 = 0.5 | 1.4229
299.91 K, x2 = 0.099 | 1.4085
300.06 K, x2 = 0.4 | 1.4201
300.66 K, x2 = 0.3 | 1.4167
300.8 K, x2 = 0.2 | 1.4128
300.8 K, x2 = 0.5 | 1.4224
302 K, x2 = 0.099 | 1.4077
302.14 K, x2 = 0.4 | 1.4194
302.24 K, x2 = 0.3 | 1.4162
302.34 K, x2 = 0.5 | 1.4219
302.35 K, x2 = 0.2 | 1.4122
303.8 K, x2 = 0.3 | 1.4156
303.88 K, x2 = 0.2 | 1.4117
304.07 K, x2 = 0.099 | 1.4069
304.17 K, x2 = 0.4 | 1.4187
304.17 K, x2 = 0.5 | 1.4213
305.44 K, x2 = 0.2 | 1.4111
306.2 K, x2 = 0.099 | 1.4061
307.01 K, x2 = 0.2 | 1.4105
